Where a SMILES comes first, the peptide text is derived from it. [ ]: non-standard residue; d: D form. The star is where a group is joined. d(aIle) = CC[C@H](C)[C@@H](N)C(=O)O; Leu(ol) = CC(C)C[C@H](N)CO; code Z = not defined here; Cbz = O=C(OCc1ccccc1)*; OBn = c1ccc(CO*)cc1; OtBu = CC(C)(C)O*; tBu = CC(C)(C)*

Assay [1] concerns rat. Kind of assay: Diuretic, natriuretic and kaliuretic action, Experimental Design 2 (anesthetized rats, stepwise halved NaCl infusion, i.v. bolus). It counts as in vivo. Particulars: dose 1 mg/kg rat i.v. bolus, collection period 120 min; for Urine: control 0.520; for K^+: control 25.8; for Na^+: control 31.5. How it is done: B. Diuretic, natruiuretic and kaliuretic action of the peptides according to the invention in Experimental Design 2 (dose: 1 mg/kg rat, colection period: 120 min.)
Experimental Design 2: The rats were anesthetized with 0.1 ml of 10% strength thiobutabarbital sodium/100 g of body weight i.p. They received an NaCl infusion from 60 min before administration of the substance up to administration of the substance (2.5 ml of a 0.85% strength NaCl solution .h^-1.0.1 kg^-1 body weight). After ad
ministration of the substance, the infusion rate was halved for one hour (1.25 ml.h^-1.0.1 kg^-1) Thereafter the infusion rate was again halved up to the end of the experiment (0.625 ml.h^1.0.1 kg^-1). The test substance was administered as i.v. bolus in 0.1 ml of a 0.85% strength NaCl solution/100 g of body weight.

Assay [2] has as its system rat. The assay can be described thus: Diuretic, natriuretic and kaliuretic action, Experimental Design 1 (anesthetized rats, continuous NaCl infusion, i.v. bolus). Type of assay: in vivo. Particulars: dose 1 mg/kg rat i.v. bolus, collection period 90 min; for Urine: control 1.267; for K^+: control 29.5; for Na^+: control 65.2. How it is done: A. […]
Experimental Design 1: The rats were anesthetized with 0.1 ml of 10% strength thiobutabarbital sodium/100 g of body weight i.p. They received an NaCl infusion from 60 min before administration of the substance and continuing during the experiment (2.5 ml of a 0.9% strength NaCl solution .h^-1.0.1 kg^-1 body weight). The test substance was administered as an i.v. bolus in 0.5 ml of a 0.9% strength solution/100 g of body weight.

In the case of `CC[C@H](C)[C@H](NC(=O)[C@H](CCCNC(=N)N)NC(=O)[C@H](CC(C)C)NC(=O)[C@H](NC(=O)[C@@H](N)CCCNC(=N)N)C(C)C)C(=O)O` [H-Arg-D-Val-Leu-Arg-Ile-OH] (H-R[dV]LRI-OH), in the assay on rat [1], the Urine amounted to 0.57 mL/kg, the “K^+” value was found to be 34.9 µmol/kg and the “Na^+” value was 83.77 µmol/kg.

Turning to `CC[C@H](C)[C@H](NC(=O)[C@@H](N)CCCNC(=N)N)C(=O)N[C@H](CC(C)C)C(=O)N[C@@H](CCCNC(=N)N)C(=O)N[C@@H](C(=O)O)C(C)C` [H-Arg-Ile-D-Leu-Arg-D-Val-OH] (H-RI[dL]R[dV]-OH), in the assay on rat [1], the Urine is 0.31 mL/kg, the “K^+” value stood at 32.8 µmol/kg and the “Na^+” value worked out at 68.4 µmol/kg.

As to `CC[C@H](C)[C@H](NC(=O)[C@H](CCCNC(=N)N)NC(=O)[C@@H](COC(C)(C)C)NC(=O)[C@@H](NC(=O)[C@@H](N)CCCNC(=N)N)[C@@H](C)CC)C(=O)O` [H-Arg-Ile-D-Ser(tBu)-Arg-Ile-OH] (H-RI[dS](tBu)RI-OH), in the assay on rat [2], the Urine turned out to be 0.95 mL/kg, the “K^+” value turned out to be 44.3 µmol/kg and the “Na^+” value worked out at 87.0 µmol/kg.

With `CC[C@H](C)[C@H](NC(=O)[C@@H](N)CCCNC(=N)N)C(=O)N[C@@H](CC(C)C)C(=O)N[C@@H](CCCNC(=N)N)C(=O)N[C@@H](C(=O)O)C(C)C` [H-Arg-Ile-Leu-Arg-D-Val-OH] (H-RILR[dV]-OH), in the assay on rat [1], the Urine was 0.56 mL/kg, the “K^+” value worked out at 38.9 µmol/kg and the “Na^+” value worked out at 68.8 µmol/kg.

As to `CC[C@H](C)[C@H](NC(=O)[C@@H](CCCNC(=N)N)NC(=O)[C@H](CC(C)C)NC(=O)[C@@H](NC(=O)[C@@H](N)CCCNC(=N)N)[C@@H](C)CC)C(=O)O` [H-Arg-Ile-Leu-D-Arg-Ile-OH] (H-RIL[dR]I-OH), in the assay with rat [1], the Urine was 0.78 mL/kg, the “K^+” value came to 40.8 µmol/kg and the “Na^+” value stood at 93.7 µmol/kg.

For `CC[C@H](C)[C@H](NC(=O)[C@H](CCCNC(=N)N)NC(=O)[C@H](COC(C)(C)C)NC(=O)[C@@H](NC(=O)[C@@H](N)CCCNC(=N)N)[C@@H](C)CC)C(=O)O` [H-Arg-Ile-Ser(tBu)-Arg-Ile-OH] (H-RIS(tBu)RI-OH), in the assay on rat [2], the Urine came to 1.19 mL/kg, the “K^+” value stood at 28.4 µmol/kg and the “Na^+” value is 74.5 µmol/kg.

On to `CC[C@H](C)[C@H](NC(=O)[C@@H](N)CCCNC(=N)N)C(=O)N[C@@H](COC(C)(C)C)C(=O)N[C@@H](CCCNC(=N)N)C(=O)N1CCC[C@H]1C(=O)OC(C)(C)C` [H-Arg-Ile-Ser(tBu)-Arg-Pro-OtBu] (H-RIS(tBu)RP-OtBu), for which, in the assay on rat [1], the Urine was 0.63 mL/kg, the “K^+” value stood at 31.5 µmol/kg and the “Na^+” value is 136.8 µmol/kg.

On to `CC[C@H](C)[C@H](NC(=O)[C@H](CCCNC(=N)N)NC(=O)[C@@H](CC(C)C)NC(=O)[C@H](NC(=O)[C@H](N)CCCNC(=N)N)[C@@H](C)CC)C(=O)O` [H-D-Arg-D-allo-Ile-D-Leu-Arg-Ile-OH] (H-[dR][d(aIle)][dL]RI-OH), for which, in the assay with rat [1], the Urine was 0.87 mL/kg, the “K^+” value was 35.5 µmol/kg and the “Na^+” value worked out at 95.1 µmol/kg.

`CC[C@H](C)[C@H](NC(=O)[C@H](CCCNC(=N)N)NC(=O)[C@@H](CC(C)C)NC(=O)[C@@H](NC(=O)[C@H](N)CCCNC(=N)N)[C@@H](C)CC)C(=O)O` [H-D-Arg-Ile-D-Leu-Arg-Ile-OH] (H-[dR]I[dL]RI-OH): in the assay on rat [1], the Urine is 1.13 mL/kg, the “K^+” value came to 49.7 µmol/kg and the “Na^+” value is 115.9 µmol/kg.

In the case of `CC[C@H](C)[C@H](NC(=O)[C@H](CCCNC(=N)N)NC(=O)[C@H](CC(C)C)NC(=O)[C@@H](NC(=O)[C@H](N)CCCNC(=N)N)[C@@H](C)CC)C(=O)O` [H-D-Arg-Ile-Leu-Arg-Ile-OH] (H-[dR]ILRI-OH), in the assay with rat [1], the Urine was 0.22 mL/kg, the “K^+” value turned out to be 33.6 µmol/kg and the “Na^+” value is 55.3 µmol/kg.

Regarding `CC[C@H](C)[C@H](NC(=O)[C@@H](CCCNC(=N)N)NC(=O)[C@H](CC(C)C)NC(=O)[C@@H](NC(=O)[C@H](N)CCCNC(=N)N)[C@@H](C)CC)C(=O)O` [H-D-Arg-Ile-Leu-D-Arg-Ile-OH] (H-[dR]IL[dR]I-OH), in the assay with rat [1], the Urine was 0.28 mL/kg, the “K^+” value was 33.9 µmol/kg and the “Na^+” value is 61.4 µmol/kg.

Regarding `CC(C)C[C@H](NC(=O)[C@H](NC(=O)[C@H](CCCNC(=N)N)NC(=O)OCc1ccccc1)C(C)C)C(=O)N[C@@H](CCCNC(=N)N)C(=O)N[C@@H](C(=O)OCc1ccccc1)C(C)C` [Z-Arg-D-Val-Leu-Arg-D-Val-OBzl] (Cbz-R[dV]LR[dV]-OBn), in the assay with rat [1], the Urine stood at 0.27 mL/kg, the “K^+” value is 38.3 µmol/kg and the “Na^+” value was 55.1 µmol/kg.

In the case of `CC[C@H](C)[C@H](NC(=O)[C@H](CCCNC(=N)N)NC(=O)OCc1ccccc1)C(=O)N[C@H](CC(C)C)C(=O)N[C@@H](CCCNC(=N)N)C(=O)N[C@@H](C(=O)OCc1ccccc1)C(C)C` [Z-Arg-Ile-D-Leu-Arg-D-Val-OBzl] (Cbz-RI[dL]R[dV]-OBn), in the assay on rat [1], the Urine came to 0.48 mL/kg, the “K^+” value came to 43.8 µmol/kg and the “Na^+” value stood at 79.0 µmol/kg.

As for `CC[C@H](C)[C@H](NC(=O)[C@H](CCCNC(=N)N)NC(=O)OCc1ccccc1)C(=O)N[C@@H](CC(C)C)C(=O)N[C@@H](CCCNC(=N)N)C(=O)N[C@@H](C(=O)OCc1ccccc1)C(C)C` [Z-Arg-Ile-Leu-Arg-D-Val-OBzl] (Cbz-RILR[dV]-OBn), in the assay on rat [1], the Urine was 0.43 mL/kg, the “K^+” value worked out at 36.7 µmol/kg and the “Na^+” value came to 88.6 µmol/kg.

For the compound `CC[C@H](C)[C@H](NC(=O)[C@H](CCCNC(=N)N)NC(=O)OCc1ccccc1)C(=O)N[C@@H](CC(C)C)C(=O)N[C@H](CCCNC(=N)N)C(=O)N[C@H](C(=O)OCc1ccccc1)[C@@H](C)CC` [Z-Arg-Ile-Leu-D-Arg-Ile-OBzl] (Cbz-RIL[dR]I-OBn), in the assay on rat [1], the Urine came to 0.52 mL/kg, the “K^+” value amounted to 36.2 µmol/kg and the “Na^+” value is 66.9 µmol/kg.

Take `CC[C@H](C)[C@H](NC(=O)[C@H](CCCNC(=N)N)NC(=O)OCc1ccccc1)C(=O)N[C@@H](COC(C)(C)C)C(=O)N[C@@H](CCCNC(=N)N)C(=O)N1CCC[C@H]1C(=O)OC(C)(C)C` [Z-Arg-Ile-Ser(tBu)-Arg-Pro-OtBu] (Cbz-RIS(tBu)RP-OtBu): in the assay on rat [1], the Urine worked out at 0.44 mL/kg, the “K^+” value is 37.8 µmol/kg and the “Na^+” value amounted to 88.9 µmol/kg.

As for `CC[C@H](C)[C@H](NC(=O)[C@H](CCCNC(=N)N)NC(=O)[C@H](Cc1c[nH]c2ccccc12)NC(=O)[C@@H](NC(=O)[C@H](CCCNC(=N)N)NC(=O)OCc1ccccc1)[C@@H](C)CC)C(=O)O` [Z-Arg-Ile-Trp-Arg-Ile-OH] (Cbz-RIWRI-OH), in the assay on rat [2], the Urine turned out to be 1.64 mL/kg, the “K^+” value came out at 37.1 µmol/kg and the “Na^+” value stood at 208.6 µmol/kg.

For the compound Cbz-RID(OtBu)RI-NH2, in the assay with rat [2], the Urine was determined as 1.51 mL/kg, the “K^+” value was found to be 63.3 µmol/kg and the “Na^+” value came to 263.2 µmol/kg.

As to Cbz-[dR]IL[dR]I-OBn, in the assay on rat [1], the Urine is 0.29 mL/kg, the “K^+” value came to 30.1 µmol/kg and the “Na^+” value came out at 48.4 µmol/kg.

For Cbz-[dR]I[dL]RI-OBn, in the assay on rat [1], the Urine worked out at 0.19 mL/kg, the “K^+” value was found to be 20.4 µmol/kg and the “Na^+” value amounted to 37.3 µmol/kg.

As to H-KFLKF-NH2 [H-Lys-Phe-Leu-Lys-Phe-NH2], in the assay on rat [1], the Urine came out at 0.25 mL/kg, the “K^+” value stood at 16.7 µmol/kg and the “Na^+” value is 36.8 µmol/kg.

Take H-KFLKF-OH [H-Lys-Phe-Leu-Lys-Phe-OH]: in the assay with rat [1], the Urine stood at 0.52 mL/kg, the “K^+” value worked out at 31.0 µmol/kg and the “Na^+” value came to 80.2 µmol/kg.

As to H-RID(OtBu)R[Leu(ol)], in the assay on rat [2], the Urine is 1.55 mL/kg, the “K^+” value came to 64.2 µmol/kg and the “Na^+” value was determined as 180.8 µmol/kg.

Take “H-RLQRL-OH [H-Arg-Leu-Gln-Arg-Leu-OH, H-Arg-Leu-Gln-Arg-Leu--OH]”: in the assay on rat [1], the Urine turned out to be 0.25 mL/kg, the “K^+” value is 23.7 µmol/kg and the “Na^+” value was 30.2 µmol/kg.

For the compound “Z-Arg-I-le-Glu(OtBu)-Arg-Ile-NH2 [Z-Arg-Ile-Glu(OtBu)-Arg-Ile-NH2]”, in the assay on rat [1], the Urine amounted to 0.47 mL/kg, the “K^+” value was 36.1 µmol/kg and the “Na^+” value was found to be 91.5 µmol/kg.

As for “Z-D-Arg-Ile-Leu-Arg-Ile-OBzl ({code Z}-[dR]ILRI-OBn; reading uncertain; also: printed as Z-D-Arg-Ile-Leu-Arg-Ile-OBzl)”, in the assay on rat [1], the Urine came to 0.59 mL/kg, the “K^+” value came out at 38.1 µmol/kg and the “Na^+” value was determined as 86.3 µmol/kg.

The values above are taken from patent US5011825A, “Peptides influencing diuresis and natriuresis, a process for their preparation, agents containing them, and their use” (Hoechst Aktiengesellschaft, priority 1986, dated 1991).
